Consider 1 compound from US8865659B2, “Compositions for prevention or treatment of Hepatitis C virus containing ginsenoside Rg3 as an active ingredient” (priority 2012, dated 2014).

Experiment [1] has as its system Hepatitis C virus (JFH-1). Kind of experiment: Real-time PCR against JFH-1 mRNA in Huh 7.5.1 cells. The format is cell-based. The following applies: 100 μM, 72 hours. The procedure:
The experiment was carried out as follow. First, 200,000 Huh 7.5.1 cells were placed in a 60×15 mm cell culture dish. Next day, Japanese Fulminant Hepatitis-1 virus (JFH-1) stock vial which was stored in −70° C. refrigerator was taken out and thawed out in a container filled with ice-water. The culture medium was collected from the cultured 60×15 mm cell culture dish, washed with 1×PBS and collected, again. 1.5 ml of JFH-1 virus solution per 60×15 mm cell culture dish each was added. The dish was shaken to cover the surface sufficiently. The dish was laid in a 5% CO2 incubator at 37° C. for 6 hours and after that, the supernatant was draw out. 1×PBS was spread on the cell surface as slow as possible and after one time washing, cells were collected. 5 ml of cell culture media was added to control and JFH-1 treatments groups. […] After that, the cell culture media was laid in a 5% CO2 incubator at 37° C. After 72 hours, the following steps were carried out.
As described in the above Example 3, the Huh 7.5.1 cells were treated with each 100 μM of seven ginsenosides (Ro, Re, Rg1, Rg2, Rg3, Rh1, Rh2). After 72 hours, a real-time PCR against JFH-1 mRNA was carried out. […]
Specific real-time PCR carried out was as follow. […] After that, total RNA was extracted from the cells treated by the above described method by using Rneasy mini kit (QIAGEN) and quantified by using Nanodrop 1000 (Thermo Scientific). […]
For orientation: Real-time PCR tracks product formation cycle by cycle.

For experiment [2], the system named is HCV CORE. Kind of experiment: Western blotting against HCV CORE in JFH-1 infected Huh 7.5.1 cells. The format is cell-based, Hepatitis C virus (JFH-1). On the procedure:
The experiment was carried out as follow. First, 200,000 Huh 7.5.1 cells were placed in a 60×15 mm cell culture dish. Next day, Japanese Fulminant Hepatitis-1 virus (JFH-1) stock vial which was stored in −70° C. refrigerator was taken out and thawed out in a container filled with ice-water. The culture medium was collected from the cultured 60×15 mm cell culture dish, washed with 1×PBS and collected, again. 1.5 ml of JFH-1 virus solution per 60×15 mm cell culture dish each was added. The dish was shaken to cover the surface sufficiently. The dish was laid in a 5% CO2 incubator at 37° C. for 6 hours and after that, the supernatant was draw out. 1×PBS was spread on the cell surface as slow as possible and after one time washing, cells were collected. 5 ml of cell culture media was added to control and JFH-1 treatments groups. At the last step of virus-infection, 5 ml CM and each […] of ginsenosides which was set to 50 mM concentration were added to the cell culture media. After that, the cell culture media was laid in a 5% CO2 incubator at 37° C. After 72 hours, the following steps were carried out.
As described in the above Example 3, the Huh 7.5.1 cells were treated with each 100 μM of seven ginsenosides (Ro, Re, Rg1, Rg2, Rg3, Rh1, Rh2). After 72 hours, a western blotting analysis was carried out for analyzing virus suppression effect against HCV CORE and cleaved PARP.
Specific western blotting analysis carried out was as follow. First, the above described samples were prepared, mixed with a sample buffer in tubes and heated at 100° C. for 10 minutes. The tubes were cooled on ice and centrifuged. The electrophoresis was carried out with the above samples and molecular weight markers, and then they were transferred to a PVDF membrane (hydrophobic). After blocking with 5% skin milk for an hour, each primary antibody was added. After staying overnight at 4° C., washings three times for every 10 minutes were conducted, and the blocking was carried out with 5% skin milk for an hour at the room temperature. After that, each secondary antibody was added, and the reaction for an hour and washing three times for every 10 minutes were conducted. Then, the membrane was stained by 1:1 mix with detection reagents A (Luminol Enhancer solution) and B (Peroxide solution) and developed with X ray film.
To examine the dose-dependent anti-virus effect of ginsenoside Rg3, western blotting analysis against cleaved PARP and HCV CORE were carried out with the samples of ginsenosides Rg3 treatment concentration at 10 μM, 25 μM, 50 μM and 100 μM each.
To examine the dose-dependent anti-virus effect of ginsenoside Rh2, western blotting analysis against cleaved PARP and HCV CORE were carried out with the samples of ginsenosides Rh2 treatment concentration at 10 μM, 25 μM and 50 μM each. […]
On the technique in general: In western blotting, separated proteins are transferred to a membrane and probed.

Regarding `CC(C)=CCC[C@](C)(O)[C@H]1CC[C@]2(C)[C@@H]1[C@H](O)C[C@@H]1[C@@]3(C)CC[C@H](O[C@@H]4O[C@H](CO)[C@@H](O)[C@H](O)[C@H]4O[C@@H]4O[C@H](CO)[C@@H](O)[C@H](O)[C@H]4O)C(C)(C)[C@@H]3CC[C@]12C` [ginsenoside Rg3], the “JFH-1 mRNA” value in experiment [1] is “remarkably decreased”. For the same compound, in experiment [2] (10 μM, 25 μM, 50 μM and 100 μM), the “virus suppression effect (HCV CORE), dose dependence” value was “dose-dependent manner”. Besides, the “HCV CORE” value in experiment [2] (100 μM, 72 hours) is “remarkably decreased”. In addition, the “anti-virus effect compared with interferon” value in experiment [2] (comparison with PegIFN alpha-2b) is recorded as “same anti-virus effect as the interferon therapeutics”.
